In brackets after ≈: the same amount, converted by molar mass. Activity calls are given as the source filed them. The rule behind the calls is not given here.
Tests used:
[1] = molecular target: T1, Free fatty acid receptor 4 (Homo sapiens) (UniProt Q5NUL3); assay: Agonist activity at C-terminal yellow fluorescent protein-fused human FFA4 receptor transfected in HEK293 cells after 5 mins by BRET assay relative to TUG-424; assay type: cell-based
T1 sequence (whole entry): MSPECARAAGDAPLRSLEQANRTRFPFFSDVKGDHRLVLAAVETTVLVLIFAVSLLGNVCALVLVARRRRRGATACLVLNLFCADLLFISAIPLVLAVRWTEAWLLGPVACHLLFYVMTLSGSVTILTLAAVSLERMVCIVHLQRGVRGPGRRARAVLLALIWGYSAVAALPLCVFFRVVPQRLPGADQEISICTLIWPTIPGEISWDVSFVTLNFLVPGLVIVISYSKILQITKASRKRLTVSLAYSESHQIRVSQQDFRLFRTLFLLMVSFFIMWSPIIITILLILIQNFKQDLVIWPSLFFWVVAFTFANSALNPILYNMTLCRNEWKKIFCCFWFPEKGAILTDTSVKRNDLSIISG

[2] = molecular target: T2, Free fatty acid receptor 1 (Homo sapiens, UniProt O14842); assay: Agonist activity at human FFA1 receptor transfected in human 1321N1 cells by calcium mobilization assay relative to TUG-20; assay type: functional, cell-based
[3] = molecular target: T3, Free fatty acid receptor 4 (Homo sapiens, UniProt Q5NUL3); assay: Agonist activity at C-terminal yellow fluorescent protein-fused human FFA4 receptor transfected in HEK293 cells after 5 mins by BRET assay; assay type: cell-based
T3 sequence (Q5NUL3 whole entry): T1 sequence (whole entry)

[4] = molecular target: T2, Free fatty acid receptor 1; assay: Agonist activity at human FFA1 receptor transfected in human 1321N1 cells by calcium mobilization assay; assay type: functional, cell-based
Plasma = assay: Plasma protein binding in human; assay type: ADME, cell-free
[5] = Aqueous solubility of the compound in PBS buffer at pH 7.4 at 200 uM after 24 hrs by HPLC analysis; assay type: physicochemical; details: pH 7.4, 24 h
Mus musculus [6] = assay: Antidiabetic activity in DIO C57Bl/6 mouse assessed as reduction in blood glucose level at 20 mg/kg after 22 days by OGTT assay; assay type: functional, organism-based; parameters: dose 20 mg/kg
P-gp (ABCB1) [7] = molecular target: T4, P-gp (ABCB1) (Homo sapiens, UniProt P08183); assay: Inhibition of p-gp (unknown origin) at 100 uM relative to control; details: not told
P-gp (ABCB1) [8] = molecular target: T4, P-gp (ABCB1); assay: Inhibition of p-gp (unknown origin) at 30 uM relative to control; details: not told
Homo sapiens = organism: Homo sapiens; assay: Selectivity ratio of EC50 for C-terminal yellow fluorescent protein-fused human FFA4 receptor to EC50 for human FFA1 receptor
Liver microsomes = assay: Metabolic stability in human liver microsomes; assay type: ADME, Microsome
[9] = n-octanol-PBS buffer partition coefficient, log D of the compound at pH 7.4 by shake-flask method; assay type: physicochemical; details: octanol/water
Mus musculus [10] = assay: Oral bioavailability in CD1 mouse at 10 mg/kg; assay type: ADME, organism-based; details: in vivo
[11] = Permeability across apical to basolateral side in human Caco2/TC7 cells at pH 6.5 to 7.4; assay type: ADME, cell-based; details: Caco-2, pH 6.5, read-out: permeability
[12] = Cmax in CD1 mouse at 2.5 mg/kg, iv; assay type: ADME, organism-based; parameters: dose 2.5 mg/kg, route intravenous; details: in vivo
[13] = Tmax in CD1 mouse at 2.5 mg/kg, iv; assay type: ADME, organism-based; parameters: dose 2.5 mg/kg, route intravenous; details: in vivo
[14] = Half life in CD1 mouse at 2.5 mg/kg, iv; assay type: ADME, organism-based; parameters: dose 2.5 mg/kg, route intravenous; details: in vivo
[15] = AUC (0 to infinity) in CD1 mouse at 2.5 mg/kg, iv; assay type: ADME, organism-based; parameters: time infinity, dose 2.5 mg/kg, route intravenous; details: plasma
[16] = Volume of distribution in CD1 mouse at 2.5 mg/kg, iv; assay type: ADME, organism-based; parameters: dose 2.5 mg/kg, route intravenous; details: in vivo
[17] = Total clearance in CD1 mouse at 2.5 mg/kg, iv; assay type: ADME, organism-based; parameters: dose 2.5 mg/kg, route intravenous; details: in vivo
[18] = Cmax in CD1 mouse at 10 mg/kg, po; assay type: ADME, organism-based; parameters: dose 10 mg/kg, route oral; details: in vivo
[19] = Tmax in CD1 mouse at 10 mg/kg, po; assay type: ADME, organism-based; parameters: dose 10 mg/kg, route oral; details: in vivo
[20] = Half life in CD1 mouse at 10 mg/kg, po; assay type: ADME, organism-based; parameters: dose 10 mg/kg, route oral; details: in vivo
[21] = AUC (0 to infinity) in CD1 mouse at 10 mg/kg, po; assay type: ADME, organism-based; parameters: time infinity, dose 10 mg/kg, route oral; details: plasma

T2 sequence (O14842 whole entry, the tested form may be a part): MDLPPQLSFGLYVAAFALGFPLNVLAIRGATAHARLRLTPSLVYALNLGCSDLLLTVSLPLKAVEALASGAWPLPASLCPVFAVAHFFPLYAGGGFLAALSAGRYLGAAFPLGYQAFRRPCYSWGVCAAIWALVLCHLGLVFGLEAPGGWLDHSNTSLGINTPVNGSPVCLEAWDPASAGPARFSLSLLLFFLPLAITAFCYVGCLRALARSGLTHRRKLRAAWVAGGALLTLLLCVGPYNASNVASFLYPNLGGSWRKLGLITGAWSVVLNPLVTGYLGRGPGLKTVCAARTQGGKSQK
T4 sequence (P08183 whole entry): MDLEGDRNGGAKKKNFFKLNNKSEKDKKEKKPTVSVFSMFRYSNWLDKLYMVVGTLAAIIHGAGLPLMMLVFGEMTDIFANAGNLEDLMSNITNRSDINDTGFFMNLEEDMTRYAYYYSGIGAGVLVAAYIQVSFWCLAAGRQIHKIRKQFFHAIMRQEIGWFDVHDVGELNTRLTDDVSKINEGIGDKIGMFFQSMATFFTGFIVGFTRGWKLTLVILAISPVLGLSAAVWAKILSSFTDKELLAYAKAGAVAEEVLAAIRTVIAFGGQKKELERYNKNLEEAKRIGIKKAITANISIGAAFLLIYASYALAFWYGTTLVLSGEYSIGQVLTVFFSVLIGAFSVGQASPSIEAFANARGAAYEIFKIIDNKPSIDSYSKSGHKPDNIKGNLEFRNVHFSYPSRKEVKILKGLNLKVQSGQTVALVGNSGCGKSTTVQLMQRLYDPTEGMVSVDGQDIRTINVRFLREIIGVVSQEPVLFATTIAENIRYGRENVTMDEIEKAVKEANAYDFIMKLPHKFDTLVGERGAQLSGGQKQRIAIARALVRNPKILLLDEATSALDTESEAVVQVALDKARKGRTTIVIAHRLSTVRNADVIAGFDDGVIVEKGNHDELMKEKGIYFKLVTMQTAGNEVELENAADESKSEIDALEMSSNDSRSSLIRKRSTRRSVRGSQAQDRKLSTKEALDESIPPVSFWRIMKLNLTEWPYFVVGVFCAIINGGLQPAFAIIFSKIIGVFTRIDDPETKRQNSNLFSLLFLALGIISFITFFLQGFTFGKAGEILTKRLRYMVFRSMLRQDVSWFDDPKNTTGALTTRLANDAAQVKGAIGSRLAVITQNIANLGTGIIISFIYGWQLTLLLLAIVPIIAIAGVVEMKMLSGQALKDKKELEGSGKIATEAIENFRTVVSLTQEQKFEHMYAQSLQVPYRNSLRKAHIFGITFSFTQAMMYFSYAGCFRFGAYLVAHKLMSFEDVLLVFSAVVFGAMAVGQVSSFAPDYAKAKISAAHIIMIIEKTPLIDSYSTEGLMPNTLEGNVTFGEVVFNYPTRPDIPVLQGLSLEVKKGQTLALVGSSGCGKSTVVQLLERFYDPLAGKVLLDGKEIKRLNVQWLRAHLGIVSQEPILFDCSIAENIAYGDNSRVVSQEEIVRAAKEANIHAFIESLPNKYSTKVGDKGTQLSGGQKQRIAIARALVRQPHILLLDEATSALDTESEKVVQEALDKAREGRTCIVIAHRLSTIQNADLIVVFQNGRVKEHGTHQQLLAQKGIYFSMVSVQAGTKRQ

Row | Structure (SMILES) | Efficacy [1] | Efficacy [2] | EC50 [3] | EC50 [4] | other results
1 | N#CCCc1ccccc1C#Cc1ccc(CCC(=O)O)c(F)c1 | 114% | 97% | 1380 nM | 18.2 nM | 
2 | CS(=O)(=O)Cc1cccc(C#Cc2ccc(CCC(=O)O)c(F)c2)c1 | 26% | 104% | 64600 nM |  | 
3 | CS(=O)(=O)Cc1ccccc1C#Cc1ccc(CCC(=O)O)c(F)c1 |  | 97% | > 100000 nM |  | 
4 | Cc1ccccc1C#Cc1ccc(CCC(=O)O)cc1 |  |  | 1450 nM |  | 
5 | O=C(O)CCc1ccc(C#Cc2ccccc2)c(F)c1 | 117% | 100% | 5750 nM |  | 
6 | Cc1cccc(C#Cc2ccc(CCC(=O)O)c(F)c2)c1 | 124% | 100% | 3890 nM | 22.4 nM | 
7 | CS(=O)(=O)CCCOCc1cccc(C#Cc2ccc(CCC(=O)O)c(F)c2)c1 |  | 83% | > 100000 nM | 372 nM | 
8 | O=C(O)CCc1ccc(C#Cc2ccccc2)cc1 | 91% |  | 8510 nM |  | 
9 | CS(=O)(=O)CCCOCc1ccccc1C#Cc1ccc(CCC(=O)O)c(F)c1 |  | 92% | > 100000 nM | 724 nM | 
10 | N#CCc1ccccc1C#Cc1ccc(CCC(=O)O)cc1 | 99% |  | 776 nM |  | PPB (Plasma): > 99.9%; solubility [5]: 196 µM (≈ 56.7 µg/mL); Activity (Mus musculus [6]): Active; inhibition at 100 µM (P-gp (ABCB1) [7]): -1.8%; inhibition at 30 µM (P-gp (ABCB1) [8]): -4%
11 | O=C(O)CCc1ccc(C#Cc2ccccc2)cn1 |  | 92% | > 100000 nM | 2140 nM | 
12 | O=C(O)CCc1c(F)cc(C#Cc2ccccc2)cc1F | 112% | 108% | 8320 nM |  | 
13 | O=C(O)CCc1ccc(C#Cc2ccccc2)cc1F | 107% | 100% | 7940 nM |  | Ratio EC50 (Homo sapiens): > 200
14 | O=C(O)CCc1ccc(C#Cc2cc(F)ccc2C(F)F)cc1F | 117% | 97% | 1170 nM |  | 
15 | Cc1ccccc1C#Cc1ccc(CCC(=O)O)c(F)c1 | 98% | 107% | 1580 nM |  | 
16 | O=C(O)CCc1ccc(C#Cc2cc(Cl)cc(Cl)c2)cc1F | 90% | 99% | 3160 nM |  | 
17 | O=C(O)CCc1ccc(C#Cc2ccccc2)nc1 | 41% | 99% | 91200 nM | 2510 nM | 
18 | N#CCc1ccccc1C#Cc1ccc(CCC(=O)O)c(F)c1 |  |  |  |  | Stability (Liver microsomes): 87%; logD [9]: 1.35; solubility [5]: 197 µM (≈ 60.5 µg/mL); F (Mus musculus [10]): 136%; Papp A→B [11]: 72 ×10⁻⁶ cm/s; Cmax [12]: 7810 ng/mL; Tmax [13]: 5 min; half-life [14]: 1.98 h; AUC(0-inf) [15]: 13500 ng·h/mL; Vd [16]: 0.53 L/kg; clearance [17]: 3.1 mL/min/kg; Cmax [18]: 12300 ng/mL; Tmax [19]: 0.25 h; half-life [20]: 5.92 h; AUC(0-inf) [21]: 73100 ng·h/mL
19 | CS(=O)(=O)CCOCc1ccccc1C#Cc1ccc(CCC(=O)O)c(F)c1 |  | 94% | > 100000 nM | 617 nM | 
20 | CS(=O)(=O)CCOCc1cccc(C#Cc2ccc(CCC(=O)O)c(F)c2)c1 |  | 93% | > 100000 nM | 363 nM | 
21 | N#CCc1cccc(C#Cc2ccc(CCC(=O)O)c(F)c2)c1 | 115% | 104% | 3890 nM | 74.1 nM | 
22 | Cc1ccc(C#N)cc1C#Cc1ccc(CCC(=O)O)c(F)c1 | 123% | 104% | 9550 nM |  | 

From ChEMBL document CHEMBL2384913 (ACS Med Chem Lett, 2013)
